Paper PMC4428838, “Optimization of Invasion-Specific Effects of Betulin Derivatives on Prostate Cancer Cells through Lead Development” (PLoS ONE, 2015)

Columns and labels:
in vitro = assay type: cell-based; conditions: human
Description: To rule out that cytotoxic and antimitotic effects were misinterpreted as anti-invasive, we tested compounds 4, 5, 6, 19 and 20 for inhibition of proliferation and induction of cell death in a 2D monolayer culture (summarized in Fig 6). […] LNCaP cells were more sensitive, with growth inhibition/cytotoxicity starting at 3 μM. The effects on non-transformed, apoptosis-sensitive Ep156T cells were strongest. Here, cytotoxic effects were typically observed already at 0.3–1 μM. […] We further calculated EC50 values for proliferation, apoptosis and cell death for each compound, using the PerkinElmer Harmony software (method validation shown in S7 Fig). The only assay that produced results consistent with those of the betulin derivatives tested in the 2D cell culture model was the proliferation assay (Table 1).
Fig 6 Cytotoxicity tests performed in 2D monolayer culture. A) Cell proliferation/cell number, B) programmed cell death (apoptosis), and C) number of dead cells were assessed by conventional assays, combined with high-content microscopy (Operetta). […] Proliferation was measured as the total number of nuclei (= cells), apoptosis as ratio of caspase-3 positive versus all cells, and cell death as ethidium homodimer-2 positive nuclei versus all cells.
Cells were transferred into CellCarrier 384-well plates (PerkinElmer, Waltham, MA, USA) at a density of 1250 cells/well, using Multidrop dispenser (ThermoFisher Scientific, Waltham, MA, USA). After overnight incubation at 37°C experimental, compounds were added with an ATS Acoustic Transfer System (EDC Biosystems, Fremont, CA, USA). For Ep156T cells the protocol was done in reverse with compounds dispensed before seeding of cells. Fluorescent markers were dispensed in culture medium using ATS system after 72-h compound exposure. Nuclei were stained with cell-permeable Hoechst 33342 (Molecular Probes, Eugene, OR, USA), dead cells with ethidium homodimer-2 (Invitrogen, Carlsbad, CA, USA) and apoptotic cells with NucView caspase-3 detection reagent (Essen Bioscience, Ann Arbor, MI, USA). Cells were imaged with Operetta high-content imager (PerkinElmer, Waltham, MA, USA). Proliferation was measured from the number of nuclei (cells), cell death and apoptosis from positive cells/total cells ratio using Harmony image analysis software (PerkinElmer, Waltham, MA, USA). EC50 values were also assessed with the Harmony software.

[1] = system: phosphorylation levels of 43 kinases in PC-3 cells; assay: Phospho-kinase antibody array on lysates of 3D cultures; assay type: cell-based, human; conditions: for p70 S6 kinase (T389), p53 (S392) and PYK2 (Y402) phosphorylation: 6-d exposure; for phosphorylation levels of STAT3 (Y727), c-Jun (S63), eNOS (S1177) and PLC-γ1 (Y783): both short (4 h, 1 μM) and long-term (6 d, 300 nM) exposures
Description: In order to elucidate possible mechanism of action for our betulin derivatives, we used a phospho-kinase array that quantitatively detects the phosphorylation levels of 43 kinases in cell lysates (Fig 7). Lysates were extracted from 3D cell cultures of PC-3 cells, and exposed to betulin-derived compounds for short (4 hours) or long-term (6 days) periods. For these studies, we selected the two representative derivatives 5 and 20 as the most specific, least cytotoxic inhibitors of cell invasion. […] The kinase arrays were also quantified by image densitometry (Fig 7A). […] The reduction of AKT activity by both compounds was validated by western blotting, using an independent, p-AKT specific antibody (Fig 7B). The short treatments caused only modest changes with a maximum reduction of protein phosphorylation by 2-fold (20: GSK-3α/β S21/S9 and STAT3 Y705). Phosphorylation levels of only three kinases were altered more than 2-fold in the long-term exposures, namely AKT (T308), p53 (S46) and eNOS (S1177), caused by nanomolar concentrations of compound 5. Compound 20 had much less dramatic effects on kinase phosphorylation when compared to compound 5, despite its generally more pronounced anti-invasive effects.
Fig 7 Mechanisms of action. PC-3 spheroids were exposed to two representative betulin derivatives, 5 and 20, for 4 h (at 1 μM) and 6 days (at 0.3 μM). A) Computational quantification of signal intensities from the kinase arrays, aligned by fold changes observed (left to right). B) Western blot of total and phospho-Akt (S473) shown for both short and long-term exposure to 20 and 5.
In order to generate sufficient protein material for antibody arrays, we resorted to 6-well Millicell hanging cell culture inserts (Merck Millipore, Billerica, MA, USA). Membranes were pre-coated with 4 mg/mL GFR Matrigel (Corning Inc., New York, NY, USA) and incubated at 37°C for 1 h to prevent attachment to the membrane. GFR Matrigel (2 mg/mL) was prepared and 100,000 cells were added in. The Matrigel-cell suspension was transferred into the coated wells and incubated overnight at 37°C. Fresh medium was added the following day under the insert. After four days in culture fresh media with compounds 20 and 5 at 0.3 μM concentration compounds were added for six days long-term exposure. On day 10, the same compounds were added in fresh medium at 1 μM concentration for the 4h short-term exposure. DMSO was used as a negative control in both exposures. Cells were harvested by first washing the inserts with ice cold PBS, then incubating the isolated ECM slabs in ice cold 5 mM ethylenediaminetetraacetic acid (EDTA) in PBS on ice on a table top rocker for 45 min to dissolve the ECM, and finally by washing the cell pellets once with PBS before lysing them in Lysis Buffer 6 (R&D Systems, Minneapolis, MN, USA). The antibody arrays used were from the Human Phospho-Kinase Array Kit (R&D Systems, Minneapolis, MN, USA). The samples were assayed according to manufacturer’s instructions. Exposed radiograms were scanned with a tabletop scanner and spot intensities quantified using Array-Pro Analyzer (v4.5.1.73) software.

SMILES	EC50 at 72 h (in vitro)	AMPKα1 (T174) phosphorylation [1]	phosphorylation of mTOR (S2448), Fyn (Y420) and Src (Y419) [1]	p70 S6 kinase (T389), p53 (S392) and PYK2 (Y402) phosphorylation ([1]; 300 nM)	Akt (S473) phosphorylation ([1]; 4 h at 1 μM vs 6 d at 300 nM)	phosphorylation levels of STAT3 (Y727), c-Jun (S63), eNOS (S1177) and PLC-γ1 (Y783) [1]	phosphorylation of Hck (Y411), pan-JNK, GSK-3α/β (S21/S9), STAT3 (Y705) and WNK1 (T60) sites ([1]; compound-specific effects)	maximum reduction of protein phosphorylation (GSK-3α/β S21/S9 and STAT3 Y705) ([1]; short treatments, 4 h, 1 μM)	p53 (S15) phosphorylation ([1]; short-term exposure, 4 h, 1 μM)	phosphorylation of p53 sites S46 and S392 [1]	alteration of phosphorylation levels of AKT (T308), p53 (S46) and eNOS (S1177) ([1]; long-term exposures, 6 d, nanomolar concentrations)	Akt (T308) phosphorylation ([1]; long-term treatment, 6 d, 300 nM)	specific changes in kinase activity ([1]; short-term exposure, 4 h, 1 μM)
C=C(C)[C@@H]1CC[C@]2(C(=O)O)CC[C@]3(C)C(CCC4[C@@]5(C)Cc6ncccc6C(C)(C)C5CC[C@]43C)C12 (stereo partly drawn) [Compound 20]	67 µM	increased	increased	reduced	only inhibited by the 6-d exposure	clearly decreased	differential phosphorylation	2 fold	reduced	–	–	–	–
C=C(C)[C@@H]1CC[C@]2(C(=O)O)CC[C@]3(C)C(CCC4[C@@]5(C)Cc6cnoc6C(C)(C)C5CC[C@]43C)C12 (stereo partly drawn) [Compound 5]	10 µM	increased	–	reduced	–	clearly decreased	–	–	reduced	consistently decreased	more than 2 fold	abolished almost entirely	did not cause any specific changes in kinase activity
